Test results: patent US10052310B2, “Separase inhibitors and uses thereof” (Baylor College of Medicine, priority 2013, dated 2018)

Biological target: T1, Separase (Homo sapiens, UniProt Q14674)
T1 construct: made in house; host or cells: 293T cells; released from IgG-Agarose by TEV protease
Assay: Fluorogenic Separase activity assay using (Rad21)2-Rh110 as substrate
Type: biochemical
Conditions: DMSO final concentration 2% to 38%
Method: The substrate used in this Example is (Rad21)2-Rh110, which has two Rad21 peptide molecules (Asp-Arg-Glu-Ile-Nle-Arg) conjugated to one molecule of Rhodamine 110 (Rh110) (CPC Scientific, Sunnyvale Calif.). The assay was set up using 384-well low volume black polystyrene plates (Corning, N.Y.). Fifteen micro liter of activated Separase (˜5 ng) was mixed with 5 μl of test compound. The cleavage buffer (CB) used to dilute reagents was (30 mM Hepes-KOH pH7.7, 50 mM NaCl, 25 mM NaF, 25 mM KCl, 5 mM MgCl2, 1.5 mM ATP, and 1 mM EGTA). The mixture was incubated at room temperature for 1 h, and then 5 μl of 0.2 mM substrate (Rad21)2-Rh110 was added. The positive control contained Separase, substrate and CB without the test compound. The negative control contained substrate and CB only. After the reaction mixture was incubated at 37° C. for 3 h, the relative fluorescence intensity was measured (without stopping the enzymatic activity) at λex=390 nm/λem=450 nm for […] (AMC) released from Rad21-MCA or λex=490 nm/λem=528 nm for Rh110 released from (Rad21)2-Rh110 using a Synergy™ 4 Multi-Mode Microplate Reader (BioTek Instruments Inc., Winooski, Vt.).
Different amounts of Sepin-1 were mixed with activated Separase for 30 min before substrate (Rad21)2-Rh110 was added. After 3 h incubation at 37° C., the fluorescence intensity of Rh110 was determined. IC50 was calculated using either KaleidaGraph program (Synerge software, Reading, Pa.) or four parameter logistic equation (4-parameter dose-response curve fit): Inhibition of Activity (%)=min+(max−min)/{1+(log [M]/IC50)}^Hill Slop, where “min” and “max” represent minimal and maximal activity inhibition, respectively. Hill Slop is the slope of the curve at its midpoint. To identify the mode of Sepin-1 interacting with Separase, different amounts of both Sepin-1 and (Rad21)2-Rh110 were used in the Separase activity assay.

T1 sequence (Q14674 whole entry): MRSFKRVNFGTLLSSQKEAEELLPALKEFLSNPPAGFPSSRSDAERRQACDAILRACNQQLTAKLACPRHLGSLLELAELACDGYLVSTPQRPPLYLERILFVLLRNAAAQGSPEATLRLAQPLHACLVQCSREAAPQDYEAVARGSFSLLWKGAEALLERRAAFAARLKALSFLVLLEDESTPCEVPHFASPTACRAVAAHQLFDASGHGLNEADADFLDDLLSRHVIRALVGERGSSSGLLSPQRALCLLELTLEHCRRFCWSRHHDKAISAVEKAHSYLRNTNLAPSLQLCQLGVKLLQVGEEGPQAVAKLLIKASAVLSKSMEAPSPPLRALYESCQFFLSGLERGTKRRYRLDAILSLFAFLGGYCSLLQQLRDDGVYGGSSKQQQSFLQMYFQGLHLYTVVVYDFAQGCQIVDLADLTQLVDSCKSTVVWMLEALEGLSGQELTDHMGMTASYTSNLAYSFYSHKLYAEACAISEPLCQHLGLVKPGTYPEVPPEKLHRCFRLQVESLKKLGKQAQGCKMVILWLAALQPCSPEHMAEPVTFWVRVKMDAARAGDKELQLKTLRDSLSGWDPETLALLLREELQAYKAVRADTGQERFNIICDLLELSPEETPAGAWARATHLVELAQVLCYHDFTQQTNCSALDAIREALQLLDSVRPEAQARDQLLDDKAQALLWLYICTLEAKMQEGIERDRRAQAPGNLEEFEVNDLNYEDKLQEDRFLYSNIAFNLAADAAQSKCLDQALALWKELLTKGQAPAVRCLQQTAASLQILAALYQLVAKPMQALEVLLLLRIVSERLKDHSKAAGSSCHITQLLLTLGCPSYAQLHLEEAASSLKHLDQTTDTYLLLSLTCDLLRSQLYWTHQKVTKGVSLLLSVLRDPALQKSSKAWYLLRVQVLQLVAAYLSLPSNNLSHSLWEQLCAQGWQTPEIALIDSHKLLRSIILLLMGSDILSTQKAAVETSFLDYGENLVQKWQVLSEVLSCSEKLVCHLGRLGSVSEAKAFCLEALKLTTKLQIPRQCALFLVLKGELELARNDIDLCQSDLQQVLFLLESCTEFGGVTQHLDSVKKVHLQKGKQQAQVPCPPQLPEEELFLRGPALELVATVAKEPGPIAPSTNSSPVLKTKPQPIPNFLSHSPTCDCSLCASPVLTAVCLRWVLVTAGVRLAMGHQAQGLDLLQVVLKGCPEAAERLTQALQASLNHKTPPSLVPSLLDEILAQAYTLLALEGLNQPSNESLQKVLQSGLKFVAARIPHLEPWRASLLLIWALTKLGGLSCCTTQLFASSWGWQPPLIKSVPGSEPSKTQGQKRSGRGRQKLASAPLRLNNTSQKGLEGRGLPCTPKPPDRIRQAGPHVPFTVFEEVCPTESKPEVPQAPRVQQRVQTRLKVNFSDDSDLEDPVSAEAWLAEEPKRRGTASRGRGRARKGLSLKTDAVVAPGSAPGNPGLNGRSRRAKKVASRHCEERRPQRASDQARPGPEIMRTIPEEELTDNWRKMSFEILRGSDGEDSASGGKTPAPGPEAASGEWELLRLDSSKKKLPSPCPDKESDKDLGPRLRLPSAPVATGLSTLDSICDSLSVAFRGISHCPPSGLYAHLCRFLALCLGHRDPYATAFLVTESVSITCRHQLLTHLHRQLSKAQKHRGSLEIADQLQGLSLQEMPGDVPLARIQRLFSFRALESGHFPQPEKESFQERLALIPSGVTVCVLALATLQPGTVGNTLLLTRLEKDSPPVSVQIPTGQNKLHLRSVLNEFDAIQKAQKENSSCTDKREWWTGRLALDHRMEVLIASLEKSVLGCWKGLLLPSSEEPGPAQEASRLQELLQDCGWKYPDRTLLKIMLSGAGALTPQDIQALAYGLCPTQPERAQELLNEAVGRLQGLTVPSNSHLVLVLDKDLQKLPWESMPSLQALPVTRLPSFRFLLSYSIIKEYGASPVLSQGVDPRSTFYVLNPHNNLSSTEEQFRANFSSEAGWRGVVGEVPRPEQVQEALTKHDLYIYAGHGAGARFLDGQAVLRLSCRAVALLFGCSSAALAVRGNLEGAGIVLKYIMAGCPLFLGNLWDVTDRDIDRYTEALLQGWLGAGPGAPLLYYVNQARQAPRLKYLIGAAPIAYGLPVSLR

## C[S+](C)[O-] [DMSO]
  IC50 of DMSO on Separase assay: ~27%
